This experiment deals with T1, multimeric extracellular GPBP (Homo sapiens, UniProt Q9Y5P4).
T1 construct: made in house; host or cells: Sf9 insect cells (baculovirus), purified from culture medium
T1 sequence (Q9Y5P4 1-624): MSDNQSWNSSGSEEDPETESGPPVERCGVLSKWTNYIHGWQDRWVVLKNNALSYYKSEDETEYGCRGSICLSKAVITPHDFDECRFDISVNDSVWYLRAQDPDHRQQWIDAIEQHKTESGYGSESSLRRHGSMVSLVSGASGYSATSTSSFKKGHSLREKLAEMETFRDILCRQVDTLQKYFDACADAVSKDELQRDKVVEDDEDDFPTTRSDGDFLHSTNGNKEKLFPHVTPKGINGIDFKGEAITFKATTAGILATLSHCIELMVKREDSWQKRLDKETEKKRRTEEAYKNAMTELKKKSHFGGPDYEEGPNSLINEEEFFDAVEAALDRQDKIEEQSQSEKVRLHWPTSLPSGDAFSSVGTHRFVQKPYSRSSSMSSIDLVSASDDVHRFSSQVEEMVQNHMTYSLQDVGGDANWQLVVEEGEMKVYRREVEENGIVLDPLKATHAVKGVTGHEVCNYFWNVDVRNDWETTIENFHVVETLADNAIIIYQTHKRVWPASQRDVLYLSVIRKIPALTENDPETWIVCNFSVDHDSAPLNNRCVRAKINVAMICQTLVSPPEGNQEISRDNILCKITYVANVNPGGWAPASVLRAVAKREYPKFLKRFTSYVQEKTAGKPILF
Description: In vitro phosphorylation assay with multimeric extracellular GPBP. Type of experiment: biochemical. The conditions noted are these: T12 50 μM; autophosphorylation, γ[32P]ATP; FIG. 2. The method, then:
FIG. 2. […] Multimeric extracellular and trimeric intracellular GPBP were purified by affinity chromatography and subsequent gel filtration chromatography, and used for in vitro phosphorylation assays in absence (−) or presence (+) of T12 (50 μM). Reactions were subjected to SDS-PAGE, Western blot onto PVDF membrane and autoradiography, and further protein detected with anti-FLAG primary antibodies. Autoradiography and anti-FLAG® bands were quantified with WCIF IMAGEJ® software, and the normalized kinase activity estimated. Shown are normalized kinase activities. […] Samples were analyzed in triplicate and the data represents the Mean (±SEM) of three independent assays.
FLAG®-tagged GPBP was expressed using Bac-to-Bac® Baculovirus Expression System. […] Finally, purified protein was quantified with Bio-Rad Protein Assay and stored at −20° C. […]
Typically, about 270 ng of purified FLAG®-GPBP protein, either extracellular multimer or intracellular trimer, were incubated in presence or absence of T12 […] in a kinase assay buffer containing 25 mM disodium β-glycerophosphate, 8 mM MgCl2, 0.5 mM EDTA, 0.5 mM EGTA, 1 mM DTT, 5 mM MnCl2 during 10 min at 37° C. […] Then reactions were stopped with SDS-PAGE loading buffer and heat (95° C., 3 min) and analyzed by SDS-PAGE, electro-transference to PVDF membrane (Merck Millipore) and autoradiography. […]

Each structure is given as a SMILES string.

As to `COc1ccc(-c2ccc(-c3cccc(C)c3)c(C)c2)c(CCC(=O)O)c1` [T12, 3-[4″-methoxy-3,2′-dimethyl-(1,1′;4′,1″)terphenyl-2″-yl] propionic acid], the “normalized kinase activity of GPBP” value is “targeted extracellular GPBP multimer”.

(Values after patent US20160184274A1, “Methods for inhibiting mesenchymal phenotype after epithelial-to-mesenchymal transition” (Fibrostatin, S.L., priority 2014, published 2016).)
